In brackets after ≈: the same amount, converted by molar mass. Like-named read-outs stand apart in the source and are kept apart here.
Tests used:
[1] = test system: methicillin-resistant Staphylococcus aureus-2 (MRSA-2; clinical isolate); assay: Minimum inhibitory concentration (MIC) susceptibility assay, broth microdilution; format: cell-based; conditions: Staphylococcus, MRSA
Protocol: (§1) The minimum inhibitory concentration (MIC) for each compound was determined by the broth microdilution method as recommended by the Clinical and Laboratory Standards Institute (CLSI). In a 96-well plate, eleven two-fold serial dilutions of each compound were made in a final volume of 100 μL Luria Broth. Each well was inoculated with ˜10^5 bacterial cells at the initial time of incubation, prepared from a fresh log phase culture (OD600 of 0.5 to 1.0 depending on bacterial strain). […] The concentration range tested for each compound during this study was 0.10 to 100 μM. DMSO served as the vehicle and negative control in each microdilution MIC assay. DMSO was serially diluted with a top concentration of 1% v/v. Bacterial strains used: methicillin-resistant Staphylococcus aureus-2 (MRSA-2; clinical isolate from Shands Hospital in Gainesville, Fla.), methicillin-resistant Staphylococcus epidermidis (MRSE; ATCC 35984), vancomycin-resistant Enterococcus faecium (VRE, ATCC 700221).

[2] = test system: methicillin-resistant Staphylococcus epidermidis (MRSE; ATCC 35984); assay: as above; format: cell-based; conditions: for MIC: Staphylococcus epidermidis, read-out: MRSE MIC
Protocol: as §1

[3] = test system: vancomycin-resistant Enterococcus faecium (VRE, ATCC 700221); assay: as above; format: cell-based; conditions: read-out: VRE MIC
Protocol: as §1

MRSA-2 = assay: Mechanistic investigations with metal(II)-cations (MIC assay with 200 μM metal salt); format: cell-based, Staphylococcus aureus; conditions: MRSA-2; for MIC: Staphylococcus aureus
Protocol: as §1

[4] = test system: MRSA-2 planktonic cells and biofilms; assay: Calgary Biofilm Device (CBD) MBC/MBEC determination; format: cell-based, Staphylococcus aureus; conditions: for MBC: Staphylococcus aureus, MRSA, planktonic killing, CBD, first value of MBC/MBEC cell
Protocol: (§2) Biofilm eradication experiments were performed using the Calgary Biofilm Device to determine MBC/MBEC values for various compounds of interest (Innovotech, product code: 19111). The Calgary device (96-well plate with lid containing 96 total pegs to establish biofilms; 1 peg/well) was inoculated with 125 μL of a mid-log phase culture diluted 1,000-fold in tryptic soy broth with 0.5% glucose (TSBG) to establish bacterial biofilms after incubation at 37° C. for 24 hours. The lid of the Calgary device was then removed, washed and transferred to another 96-well plate containing 2-fold serial dilutions of the test compounds (the “challenge plate”). The total volume of media with compound in each well in the challenge plate was 150 μL. The Calgary device was then incubated at 37° C. for 24 hours. The lid was then removed from the challenge plate and MBC/MBEC values were determined using different final assays. […] The MBC values were determined as the concentration giving a lack of visible bacterial growth (e.g., turbidity). For determination of MBEC values, the Calgary device lid (with attached pegs/treated biofilms) was transferred to a new 96-well plate containing 150 μL of fresh TSBG media in each well and incubated for 24 hours at 37° C. to allow viable biofilms to grow and disperse resulting in turbidity after the incubation period. […] In select experiments, treated pegs from the Calgary device were removed from lead biofilm eradicators after final incubation, sonicated for 30 minutes in PBS and plated out to determine biofilm cell killing (e.g., colony forming unit per milliliter, CFU/mL).

[5] = test system: MRSE (ATCC 35984) planktonic cells and biofilms; assay: as above; format: cell-based, Staphylococcus epidermidis; conditions: Staphylococcus epidermidis, planktonic killing, CBD, first value of cell
Protocol: as §2

[6] = test system: VRE (ATCC 700221) planktonic cells and biofilms; assay: as above; format: cell-based, Enterococcus faecium; conditions: Enterococcus, planktonic killing, CBD, first value of cell
Protocol: as §2

human red blood cells = assay: Hemolysis assay; format: cell-based; conditions: human, 1 h, pH 7.2
Protocol: Freshly drawn human red blood cells (hRBC with ethylenediaminetetraacetic acid (EDTA) as an anticoagulant) were washed with Tris-buffered saline (0.01M Tris-base, 0.155M sodium chloride (NaCl), pH 7.2) and centrifuged for 5 minutes at 3500 rpm. The washing was repeated three times with the buffer. In 96-well plate, the test compounds were added to the buffer. […] The plate was then incubated for 1 hour at 37° C. After incubation, the plate is centrifuged for 5 minutes at 3500 rpm. Then 80 μL of the supernatant were transferred to another 96-well plate and the Optical Density (OD) was read at 405 nm. […] The percent of hemolysis was calculated as (OD405 of the compound-OD405 DMSO)/(OD405 Triton X-OD405 buffer).

[7] = change in antibacterial activity according to MIC values
[8] = Table 3, at least three independent experiments, read-out: MRSA-2 MIC
[9] = Table 3, footnote c = lowest concentration tested, read-out: VRE MBC

Row | SMILES | MIC [1, 8] | MIC ([2]; Table 3) | MIC ([3]; Table 3) | MBC ([4]; Table 3, read-out: MRSA-2 MBC) | % Haemolysis at 200 μM (human red blood cells) | MBC ([5]; Table 3, read-out: MRSE MBC) | MBC [6, 9] | other results
1 | Oc1c(Br)cc(Br)c2ccc(CNc3ccc(Br)cc3)nc12 [HQ-6] | – | – | – | – | – | – | – | MIC ([1]; Table 2, 2 to 6 independent experiments, read-out: MRSA-2 MIC): 3.13 µM (≈ 1.52 µg/mL); MIC ([1]; read-out: MIC): 4.69 µM (≈ 2.28 µg/mL); fold more potent antibacterial activities than vancomycin ([2]; MRSE, MIC, same assays): 5 fold; MIC ([2]; 18 h, Table 2, ATCC 35984): 0.15 to 0.3 µM (≈ 0.073 to 0.146 µg/mL); MIC ([2]; Table 2, ATCC 35984): 0.15 µM (≈ 0.073 µg/mL); MIC ([3]; 18 h, Table 2, ATCC 700221): 0.39 to 0.78 µM (≈ 0.19 to 0.38 µg/mL); MIC ([3]; Table 2, ATCC 700221): 0.78 µM (≈ 0.38 µg/mL); Fold Δ (MIC w/Mg^2+) (MRSA-2; [7]): insignificant changes in antibacterial activities; Fold Δ (MIC w/Zn^2+) (MRSA-2; [7]): −6 fold; MIC (MRSA-2; 200 μM ammonium iron (II) sulfate hexahydrate, read-out: MIC w/Fe^2+): 9.38 µM; MIC (MRSA-2; 200 μM copper (II) sulfate, read-out: MIC w/Cu^2+): 1.13 µM; MIC (MRSA-2; 200 μM magnesium (II) sulfate, read-out: MIC w/Mg^2+): 3.13 µM; MIC (MRSA-2; 200 μM zinc (II) chloride, read-out: MIC w/Zn^2+): 0.78 µM; MBEC:MBC ratio ([4]; MRSA-2, CBD): equipotent killing efficiencies; MBC ([4]; Table 2, read-out: MRSA-2 Clinical Isolate MBC): 125 µM (≈ 60.9 µg/mL); MBC ([5]; Table 2, read-out: MRSE ATCC 35984 MBC): 5.9 µM (≈ 2.87 µg/mL); MBC ([6]; Table 2, read-out: VRE ATCC 700221 MBC): 3.9 µM (≈ 1.9 µg/mL)
2 | NC(=O)c1cnccn1 [Pyrazinamide, reference compound] | – | – | – | > 2000 µM | ≤1% | – | – | –
3 | CCCCCNCc1ccc2c(Br)cc(Br)c(O)c2n1 [RA-HQ-2] | 2.35 µM (≈ 0.945 µg/mL) | 1.56 µM (≈ 0.627 µg/mL) | 3.13 µM (≈ 1.26 µg/mL) | 31.3 µM (≈ 12.6 µg/mL) | 87.9% | 23.5 µM (≈ 9.45 µg/mL) | 15.6 µM (≈ 6.27 µg/mL) | MIC ([1]; read-out: MIC): 3.13 µM (≈ 1.26 µg/mL)
4 | Oc1c(Br)cc(Br)c2ccc(CNc3ccc(Cl)cc3)nc12 [RA-HQ-13] | 0.78 µM (≈ 0.345 µg/mL) | 0.3 µM (≈ 0.133 µg/mL) | 0.78 µM (≈ 0.345 µg/mL) | 31.3 µM (≈ 13.9 µg/mL) | 17.6% | 31.3 µM (≈ 13.9 µg/mL) | 1.5 µM (≈ 0.664 µg/mL) | –
5 | Oc1c(Br)cc(Br)c2ccc(CNc3cc(Br)ccc3Br)nc12 [RA-HQ-17] | 3.13 µM (≈ 1.77 µg/mL) | 0.59 µM (≈ 0.334 µg/mL) | 1.56 µM (≈ 0.883 µg/mL) | 750 µM (≈ 424 µg/mL) | 7.4% | 188 µM (≈ 106 µg/mL) | 31.3 µM (≈ 17.7 µg/mL) | –
6 | Oc1c(I)cc(I)c2ccc(CNc3ccc(Br)cc3)nc12 [RA-HQ-23] | 25 µM (≈ 14.5 µg/mL) | 12.5 µM (≈ 7.26 µg/mL) | 25 µM (≈ 14.5 µg/mL) | > 1000 µM | 3.3% | 125 µM (≈ 72.6 µg/mL) | 31.3 µM (≈ 18.2 µg/mL) | –

Second part, led by results:

Row | MIC [1, 8] | MIC ([2]; Table 3) | MIC ([3]; Table 3) | SMILES | MBC ([4]; Table 3, read-out: MRSA-2 MBC) | % Haemolysis at 200 μM (human red blood cells) | MBC ([5]; Table 3, read-out: MRSE MBC) | MBC [6, 9] | other results
7 | 4.69 µM (≈ 2.5 µg/mL) | 0.78 µM (≈ 0.417 µg/mL) | 4.69 µM (≈ 2.5 µg/mL) | Oc1c(Br)cc(Br)c2ccc(CNc3ccc(I)cc3)nc12 [RA-HQ-14] | 250 µM (≈ 133 µg/mL) | 11.0% | 46.9 µM (≈ 25 µg/mL) | 46.9 µM (≈ 25 µg/mL) | –
8 | 1.56 µM (≈ 0.76 µg/mL) | 0.2 µM (≈ 0.0974 µg/mL) | 0.78 µM (≈ 0.38 µg/mL) | Oc1c(Br)cc(Br)c2ccc(CNc3cccc(Br)c3)nc12 [RA-HQ-15] | 188 µM (≈ 91.6 µg/mL) | 37.3% | 31.3 µM (≈ 15.2 µg/mL) | 7.8 µM (≈ 3.8 µg/mL) | –
9 | > 100 µM | 4.69 µM (≈ 2.35 µg/mL) | 9.38 µM (≈ 4.71 µg/mL) | Oc1c(I)cc(I)c2ccc(CNc3ccccc3)nc12 [RA-HQ-22] | > 1000 µM | 3.0% | 250 µM (≈ 126 µg/mL) | 31.3 µM (≈ 15.7 µg/mL) | –
